Bridge positions count the residues as written; N and C are the ends. Square brackets hold non-standard residues; d marks the D form. Peptide text beside a SMILES is read from it. Phe(3-CF3) = N[C@@H](Cc1cccc(C(F)(F)F)c1)C(=O)O; Bip = N[C@@H](Cc1ccc(-c2ccccc2)cc1)C(=O)O; Phe(3-OMe) = COc1cccc(C[C@H](N)C(=O)O)c1; Cha = N[C@@H](CC1CCCCC1)C(=O)O; Cit = NC(=O)NCCC[C@H](N)C(=O)O; NMeA = CN[C@@H](C)C(=O)O; Nle = CCCC[C@H](N)C(=O)O; Orn = NCCC[C@H](N)C(=O)O; Dab = NCC[C@H](N)C(=O)O
These compounds were tested against T1, PE-labeled human PD-L1-Ig binding to Jurkat cell line over-expressing human PD-1 (Jurkat-PD-1) (Homo sapiens, UniProt Q15116) (assay: Jurkat-PD-1 Cell Binding High-Content Screening Assay (CBA): Method 1). Conditions: Jurkat-hPD-1 cells, PE-labeled PD-L1-Ig 20 nM final; read-out: Jurkat HPDL1 PD1 IC50 (uM) (Method 1).
T1 construct: expressed in transfected cells; host or cells: Jurkat
T1 sequence (Q15116 25-288): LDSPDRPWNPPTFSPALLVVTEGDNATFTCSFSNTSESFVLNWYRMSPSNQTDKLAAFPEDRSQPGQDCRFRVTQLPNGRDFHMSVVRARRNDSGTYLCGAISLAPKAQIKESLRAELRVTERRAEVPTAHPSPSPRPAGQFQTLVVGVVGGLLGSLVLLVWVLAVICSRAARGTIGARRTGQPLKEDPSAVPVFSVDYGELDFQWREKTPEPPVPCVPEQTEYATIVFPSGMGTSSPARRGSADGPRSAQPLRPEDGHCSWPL

Structure (SMILES)	IC50
CC(C)C[C@@H]1NC(=O)[C@H](CCCCN)NC(=O)[C@@H](CC(C)C)NC(=O)[C@H](C)N(C)C(=O)[C@H](CCCNC(=N)N)NC(=O)[C@H](Cc2ccc(-c3ccccc3)cc2)NC(=O)[C@H](C(C)C)NC(=O)[C@H](Cc2c[nH]c3ccccc23)NC(=O)[C@H](CC(=O)O)NC(=O)[C@H](Cc2ccc(O)cc2)NC(=O)[C@H](CC(N)=O)NC(=O)CSC[C@@H](C(=O)N[C@@H](C)C(N)=O)NC(=O)[C@H]([C@@H](C)O)NC(=O)[C@H](C(C)C)NC1=O [Compound 1280] ({CH2CO}-NYDWV[Bip]R[NMeA][dL]KLVTCA-NH2; thioether N-14)	0.08 µM
CCCC[C@@H]1NC(=O)[C@H](CCCNC(=N)N)NC(=O)[C@@H](CC(C)C)NC(=O)[C@H](C)N(C)C(=O)[C@H](CCCNC(N)=O)NC(=O)[C@H](Cc2ccc(-c3ccccc3)cc2)NC(=O)[C@H](C(C)C)NC(=O)[C@H](Cc2c[nH]c3ccccc23)NC(=O)[C@H](CC(=O)O)NC(=O)[C@H](Cc2ccc(O)cc2)NC(=O)[C@H](CC(N)=O)NC(=O)CSC[C@@H](C(=O)N[C@@H](C)C(N)=O)NC(=O)[C@H]([C@@H](C)O)NC(=O)[C@H](C(C)C)NC1=O [Compound 1285] ({CH2CO}-NYDWV[Bip][Cit][NMeA][dL]R[Nle]VTCA-NH2; thioether N-14)	0.05 µM
CCCC[C@@H]1NC(=O)[C@H](CCCNC(=N)N)NC(=O)[C@@H](CC(C)C)NC(=O)[C@H](C)N(C)C(=O)[C@H](CCCN)NC(=O)[C@H](Cc2ccc(-c3ccccc3)cc2)NC(=O)[C@H](C(C)C)NC(=O)[C@H](Cc2c[nH]c3ccccc23)NC(=O)[C@H](CC(=O)O)NC(=O)[C@H](Cc2ccc(O)cc2)NC(=O)[C@H](CC(N)=O)NC(=O)CSC[C@@H](C(=O)N[C@@H](C)C(N)=O)NC(=O)[C@H]([C@@H](C)O)NC(=O)[C@H](C(C)C)NC1=O [Compound 1289] ({CH2CO}-NYDWV[Bip][Orn][NMeA][dL]R[Nle]VTCA-NH2; thioether N-14)	0.09 µM
CC(C)C[C@@H]1NC(=O)[C@H](CCN)NC(=O)[C@@H](CC(C)C)NC(=O)[C@H](C)N(C)C(=O)[C@H](C(C)C)NC(=O)[C@H](Cc2ccc(-c3ccccc3)cc2)NC(=O)[C@H](C(C)C)NC(=O)[C@H](Cc2cccc(C(F)(F)F)c2)NC(=O)[C@H](CC(=O)O)NC(=O)[C@H](Cc2ccc(O)cc2)NC(=O)[C@H](CC(N)=O)NC(=O)CSC[C@@H](C(=O)N[C@@H](C)C(N)=O)NC(=O)[C@H]([C@@H](C)O)NC(=O)[C@H](C(C)C)NC1=O [Compound 1290] ({CH2CO}-NYD[Phe(3-CF3)]V[Bip]V[NMeA][dL][Dab]LVTCA-NH2; thioether N-14)	0.01 µM
COc1cccc(C[C@@H]2NC(=O)[C@H](CC(=O)O)NC(=O)[C@H](Cc3ccc(O)cc3)NC(=O)[C@H](CC(N)=O)NC(=O)CSC[C@@H](C(=O)N[C@@H](C)C(N)=O)NC(=O)[C@H]([C@@H](C)O)NC(=O)[C@H](C(C)C)NC(=O)[C@H](CC(C)C)NC(=O)[C@H](CCCNC(=N)N)NC(=O)[C@@H](CC(C)C)NC(=O)[C@H](C)N(C)C(=O)[C@H](C(C)C)NC(=O)[C@H](Cc3ccc(-c4ccccc4)cc3)NC(=O)[C@H](C(C)C)NC2=O)c1 [Compound 1292] ({CH2CO}-NYD[Phe(3-OMe)]V[Bip]V[NMeA][dL]RLVTCA-NH2; thioether N-14)	0.03 µM
CCCC[C@@H]1NC(=O)[C@H](CCCNC(=N)N)NC(=O)[C@@H](CC(C)C)NC(=O)[C@H](C)N(C)C(=O)[C@H](C(C)C)NC(=O)[C@H](Cc2ccc(-c3ccccc3)cc2)NC(=O)[C@H](C(C)C)NC(=O)[C@H](Cc2c[nH]c3ccccc23)NC(=O)[C@H](CC(=O)O)NC(=O)[C@H](Cc2ccc(O)cc2)NC(=O)[C@H](CC(N)=O)NC(=O)CSC[C@@H](C(=O)N[C@@H](C)C(N)=O)NC(=O)[C@H]([C@@H](C)O)NC(=O)[C@H](C(C)C)NC1=O [Compound 1293] ({CH2CO}-NYDWV[Bip]V[NMeA][dL]R[Nle]VTCA-NH2; thioether N-14)	0.07 µM
CC(C)C[C@H]1NC(=O)[C@H](C)N(C)C(=O)[C@H](C(C)C)NC(=O)[C@H](Cc2ccc(-c3ccccc3)cc2)NC(=O)[C@H](C(C)C)NC(=O)[C@H](Cc2c[nH]c3ccccc23)NC(=O)[C@H](CC(=O)O)NC(=O)[C@H](Cc2ccc(O)cc2)NC(=O)[C@H](CC(N)=O)NC(=O)CSC[C@@H](C(=O)N[C@@H](C)C(N)=O)NC(=O)[C@H]([C@@H](C)O)NC(=O)[C@H](C(C)C)NC(=O)[C@H](CC2CCCCC2)NC(=O)[C@H](CCCNC(=N)N)NC1=O [Compound 1294] ({CH2CO}-NYDWV[Bip]V[NMeA][dL]R[Cha]VTCA-NH2; thioether N-14)	0.3 µM
CC(C)C[C@H]1NC(=O)[C@H](C)N(C)C(=O)[C@H](C(C)C)NC(=O)[C@H](Cc2ccc(-c3ccccc3)cc2)NC(=O)[C@H](C(C)C)NC(=O)[C@H](Cc2c[nH]c3ccccc23)NC(=O)[C@H](CC(=O)O)NC(=O)[C@H](Cc2ccc(O)cc2)NC(=O)[C@H](CC(N)=O)NC(=O)CSC[C@@H](C(=O)N[C@@H](C)C(N)=O)NC(=O)[C@H]([C@@H](C)O)NC(=O)[C@H](C(C)C)NC(=O)[C@H](CC2CCCCC2)NC(=O)[C@H](CCN)NC1=O [Compound 1296] ({CH2CO}-NYDWV[Bip]V[NMeA][dL][Dab][Cha]VTCA-NH2; thioether N-14)	0.01 µM

Further compounds by falling IC50, results first:

IC50	Structure (SMILES)
0.33 µM	CC(C)C[C@@H]1NC(=O)[C@H](CCN)NC(=O)[C@@H](CC(C)C)NC(=O)[C@H](C)N(C)C(=O)CNC(=O)[C@H](Cc2ccc(-c3ccccc3)cc2)NC(=O)[C@H](C(C)C)NC(=O)[C@H](Cc2c[nH]c3ccccc23)NC(=O)[C@H](CC(=O)O)NC(=O)[C@H](Cc2ccc(O)cc2)NC(=O)[C@H](CC(N)=O)NC(=O)CSC[C@@H](C(=O)N[C@@H](C)C(N)=O)NC(=O)[C@H]([C@@H](C)O)NC(=O)[C@H](C(C)C)NC1=O [Compound 1281] ({CH2CO}-NYDWV[Bip]G[NMeA][dL][Dab]LVTCA-NH2; thioether N-14)
0.13 µM	CCCC[C@@H]1NC(=O)[C@H](CCCNC(=N)N)NC(=O)[C@@H](CC(C)C)NC(=O)[C@H](C)N(C)C(=O)[C@H](CCCNC(=N)N)NC(=O)[C@H](Cc2ccc(-c3ccccc3)cc2)NC(=O)[C@H](C(C)C)NC(=O)[C@H](Cc2c[nH]c3ccccc23)NC(=O)[C@H](CC(=O)O)NC(=O)[C@H](Cc2ccc(O)cc2)NC(=O)[C@H](CC(N)=O)NC(=O)CSC[C@@H](C(=O)N[C@@H](C)C(N)=O)NC(=O)[C@H]([C@@H](C)O)NC(=O)[C@H](C(C)C)NC1=O [Compound 1282] ({CH2CO}-NYDWV[Bip]R[NMeA][dL]R[Nle]VTCA-NH2; thioether N-14)
0.08 µM	CC(C)C[C@@H]1NC(=O)[C@H](CCCNC(=N)N)NC(=O)[C@@H](CC(C)C)NC(=O)[C@H](C)N(C)C(=O)[C@H](CCCN)NC(=O)[C@H](Cc2ccc(-c3ccccc3)cc2)NC(=O)[C@H](C(C)C)NC(=O)[C@H](Cc2c[nH]c3ccccc23)NC(=O)[C@H](CC(=O)O)NC(=O)[C@H](Cc2ccc(O)cc2)NC(=O)[C@H](CC(N)=O)NC(=O)CSC[C@@H](C(=O)N[C@@H](C)C(N)=O)NC(=O)[C@H]([C@@H](C)O)NC(=O)[C@H](C(C)C)NC1=O [Compound 1288] ({CH2CO}-NYDWV[Bip][Orn][NMeA][dL]RLVTCA-NH2; thioether N-14)
0.04 µM	CCCC[C@@H]1NC(=O)[C@H](CCN)NC(=O)[C@@H](CC(C)C)NC(=O)[C@H](C)N(C)C(=O)[C@H](CCCNC(=N)N)NC(=O)[C@H](Cc2ccc(-c3ccccc3)cc2)NC(=O)[C@H](C(C)C)NC(=O)[C@H](Cc2c[nH]c3ccccc23)NC(=O)[C@H](CC(=O)O)NC(=O)[C@H](Cc2ccc(O)cc2)NC(=O)[C@H](CC(N)=O)NC(=O)CSC[C@@H](C(=O)N[C@@H](C)C(N)=O)NC(=O)[C@H]([C@@H](C)O)NC(=O)[C@H](C(C)C)NC1=O [Compound 1283] ({CH2CO}-NYDWV[Bip]R[NMeA][dL][Dab][Nle]VTCA-NH2; thioether N-14)
0.02 µM	CC(C)C[C@@H]1NC(=O)[C@H](CCCNC(=N)N)NC(=O)[C@@H](CC(C)C)NC(=O)[C@H](C)N(C)C(=O)[C@H](C(C)C)NC(=O)[C@H](Cc2ccc(-c3ccccc3)cc2)NC(=O)[C@H](C(C)C)NC(=O)[C@H](Cc2cccc(C(F)(F)F)c2)NC(=O)[C@H](CC(=O)O)NC(=O)[C@H](Cc2ccc(O)cc2)NC(=O)[C@H](CC(N)=O)NC(=O)CSC[C@@H](C(=O)N[C@@H](C)C(N)=O)NC(=O)[C@H]([C@@H](C)O)NC(=O)[C@H](C(C)C)NC1=O [Compound 1291] ({CH2CO}-NYD[Phe(3-CF3)]V[Bip]V[NMeA][dL]RLVTCA-NH2; thioether N-14)
0.02 µM	CCCC[C@@H]1NC(=O)[C@H](CCN)NC(=O)[C@@H](CC(C)C)NC(=O)[C@H](C)N(C)C(=O)[C@H](C(C)C)NC(=O)[C@H](Cc2ccc(-c3ccccc3)cc2)NC(=O)[C@H](C(C)C)NC(=O)[C@H](Cc2c[nH]c3ccccc23)NC(=O)[C@H](CC(=O)O)NC(=O)[C@H](Cc2ccc(O)cc2)NC(=O)[C@H](CC(N)=O)NC(=O)CSC[C@@H](C(=O)N[C@@H](C)C(N)=O)NC(=O)[C@H]([C@@H](C)O)NC(=O)[C@H](C(C)C)NC1=O [Compound 1295] ({CH2CO}-NYDWV[Bip]V[NMeA][dL][Dab][Nle]VTCA-NH2; thioether N-14)
0.01 µM	CC(C)C[C@H]1NC(=O)[C@H](C)N(C)C(=O)[C@H](CCCNC(=N)N)NC(=O)[C@H](Cc2ccc(-c3ccccc3)cc2)NC(=O)[C@H](C(C)C)NC(=O)[C@H](Cc2c[nH]c3ccccc23)NC(=O)[C@H](CC(=O)O)NC(=O)[C@H](Cc2ccc(O)cc2)NC(=O)[C@H](CC(N)=O)NC(=O)CSC[C@@H](C(=O)N[C@@H](C)C(N)=O)NC(=O)[C@H]([C@@H](C)O)NC(=O)[C@H](C(C)C)NC(=O)[C@H](CC2CCCCC2)NC(=O)[C@H](CCN)NC1=O [Compound 1284] ({CH2CO}-NYDWV[Bip]R[NMeA][dL][Dab][Cha]VTCA-NH2; thioether N-14)
0.01 µM	CC(C)C[C@H]1NC(=O)[C@H](C)N(C)C(=O)[C@H](CCCNC(N)=O)NC(=O)[C@H](Cc2ccc(-c3ccccc3)cc2)NC(=O)[C@H](C(C)C)NC(=O)[C@H](Cc2c[nH]c3ccccc23)NC(=O)[C@H](CC(=O)O)NC(=O)[C@H](Cc2ccc(O)cc2)NC(=O)[C@H](CC(N)=O)NC(=O)CSC[C@@H](C(=O)N[C@@H](C)C(N)=O)NC(=O)[C@H]([C@@H](C)O)NC(=O)[C@H](C(C)C)NC(=O)[C@H](CC2CCCCC2)NC(=O)[C@H](CCN)NC1=O [Compound 1287] ({CH2CO}-NYDWV[Bip][Cit][NMeA][dL][Dab][Cha]VTCA-NH2; thioether N-14)

Source: patent US20240409585A1, “MACROCYCLIC IMMUNOMODULATORS” (priority 2021, published 2024)
